Consider 38 compounds from patent US8202513B2, “Aryl potassium channel blockers and uses thereof” (Bionomics Limited, priority 2007, dated 2012).

The structures appear in SMILES notation.

In this assay the target is T1, human Kv1.3 ion channel (Homo sapiens, UniProt P22001).
T1 construct: Human Jurkat cells (which endogenously express hKv1.3) or Chinese Hamster Ovary (CHO) cells stably transfected with hKv1.3 were used; endogenous in cells; host or cells: Human Jurkat cells (endogenous) or CHO cells stably transfected with hKv1.3
T1 sequence (P22001 whole entry): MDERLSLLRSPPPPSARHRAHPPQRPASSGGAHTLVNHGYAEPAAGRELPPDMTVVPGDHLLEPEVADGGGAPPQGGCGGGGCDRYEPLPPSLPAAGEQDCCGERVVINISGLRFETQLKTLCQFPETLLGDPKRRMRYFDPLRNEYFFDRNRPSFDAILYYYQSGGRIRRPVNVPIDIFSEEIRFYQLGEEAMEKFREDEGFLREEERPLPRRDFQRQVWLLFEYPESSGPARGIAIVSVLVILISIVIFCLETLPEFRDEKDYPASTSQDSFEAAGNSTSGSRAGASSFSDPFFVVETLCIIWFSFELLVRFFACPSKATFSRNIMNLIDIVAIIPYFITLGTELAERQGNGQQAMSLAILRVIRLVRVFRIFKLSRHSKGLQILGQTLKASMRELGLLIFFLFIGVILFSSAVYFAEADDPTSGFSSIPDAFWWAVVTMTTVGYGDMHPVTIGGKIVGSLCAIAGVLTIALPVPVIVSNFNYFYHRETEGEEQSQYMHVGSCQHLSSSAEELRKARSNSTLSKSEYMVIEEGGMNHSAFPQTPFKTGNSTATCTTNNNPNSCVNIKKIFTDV
Nature of the assay: Inhibition of Kv1.3 currents, planar patch clamp. The settings on record: Human Jurkat cells or CHO cells stably transfected with hKv1.3; averaged dose response data from 3 or more cells. It is filed as cell-based. Here is the method:
Potency of compounds to inhibit the human Kv1.3 ion channel was determined as follows:
EC50 values for inhibition of Kv1.3 currents were determined by the method according to Schmitz et al (2005) Molecular Pharmacology 68, 1254-1270 with the following differences: • 1. Human Jurkat cells (which endogenously express hKv1.3) or Chinese Hamster Ovary (CHO) cells stably transfected with hKv1.3 were used in place of transfected rat L929 cells. • 2. All electrophysiology was performed using planar patch clamp (Port-A-Patch, Nanion Technologies Gmbh, Munich) in contrast to conventional patch clamp. • 3. EC50 values shown were determined from averaged dose response data obtained from 3 or more cells.
For `COc1cc(OCCCCOc2ccccc2)c(C(C)=O)c(OCCN2CCOCC2)c1` [reference compound], the 50% effective concentration (EC50) is more than 300 nM. `COc1c(Cl)c(C)c(C(C)=O)c(OCCn2ccnc2)c1OCCC(C)c1ccc(F)cc1` (centres unmarked) [Example 41, 1-[3-Chloro-5-[3-(4-fluoro-phenyl)-butoxy]-6-(2-imidazol-1-yl-ethoxy)-4-methoxy-2-methyl-phenyl]-ethanone] had a half-maximal effective concentration (EC50) of less than 50 nM.

`COc1c(Cl)c(C)c(C(C)=O)c(OCCN2CCSCC2)c1OCCCc1ccccc1` [Example 36, 1-[3-Chloro-4-methoxy-2-methyl-5-(3-phenyl-propoxy)-6-(2-thiomorpholin-4-yl-ethoxy)-phenyl]-ethanone]: the EC50 was in the range of 50 to 150 nM. `COc1c(Cl)c(C)c(C(C)=O)c(OCCn2cncn2)c1OCCC(C)c1ccc(F)cc1` (centres unmarked) [Example 19, 1-[3-Chloro-5-[3-(4-fluorophenyl)-butoxy]-4-methoxy-2-methyl-6-(2-[1,2,4]-triazol-1-yl-ethoxy)-phenyl]-ethanone] showed a 50% effective concentration (EC50) of 50 to 150 nM. With `COc1c(C)c(C)c(C(C)=O)c(OCCN2CCOCC2)c1OCCCc1ccc(F)cc1` [Example 3c, 1-[3-[3-(4-Fluoro-phenyl)-propoxy]-4-methoxy-5,6-dimethyl-2-(2-morpholin-4-yl-ethoxy)-phenyl]-ethanone], the EC50 was 50 to 150 nM.

Consider `COc1c(Cl)c(C)c(C(C)=O)c(OCCN2CCOCC2)c1OCCCc1ccc(F)cc1` [Example 1f, 1-(3-Chloro-5-(3-(4-fluorophenyl)propoxy)-4-methoxy-2-methyl-6-(2-morpholinoethoxy)phenyl)ethanone], for which the EC50 fell in the range of 50 to 150 nM. In turn, `C=CCc1c(NC(C)=O)ccc(C(C)=O)c1OCCCc1ccccc1` [reference compound] displayed an EC50 of more than 300 nM. For `COc1c(Cl)c(C)c(C(C)=O)c(OCCc2ccccn2)c1CCCCc1ccccc1` [Example 27, 1-(3-Chloro-4-methoxy-2-methyl-5-(4-phenylbutyl)-6-(2-(pyridine-2-yl)ethoxy)phenyl)ethanone], the EC50 was less than 50 nM. Regarding `COc1c(Cl)c(C)c(C(C)=O)c(OCCN2CCC(=O)CC2)c1OCCC(C)c1ccc(F)cc1` (centres unmarked) [Example 15, 1-{3-Chloro-5-[3-(4-fluoro-phenyl)-butoxy]-6-[2-(4-oxo-piperidin-1-yl)-ethoxy]-4-methoxy-2-methyl-phenyl}-ethanone], the EC50 was less than 50 nM. Take `COc1c(Cl)c(C)c(C(C)=O)c(OCCN2CCC(F)(F)C2)c1OCCCc1ccccc1` [Example 37, 1-[3-Chloro-6-[2-(3,3-difluoro-pyrrolidin-1-yl)-ethoxy]-4-methoxy-2-methyl-5-(3-phenyl-propoxy)-phenyl]-ethanone]: the EC50 fell in the range of 150 to 300 nM. Take `COc1c(Cl)c(C)c(C(C)=O)c(OCCN2CCCCC2)c1OCCC(C)c1ccc(F)cc1` (centres unmarked) [Example 10, 1-[3-Chloro-5-[3-(4-fluoro-phenyl)-butoxy]-4-methoxy-2-methyl-6-(2-piperidin-1-yl-ethoxy)-phenyl]-ethanone]: the half-maximal effective concentration (EC50) is less than 50 nM. The compound `COc1c(Cl)c(C)c(C(C)=O)c(OCCN2CCC(O)CC2)c1OCCC(C)c1ccc(F)cc1` (centres unmarked) [Example 14, 1-{3-Chloro-5-[3-(4-fluoro-phenyl)-butoxy]-6-[2-(4-hydroxy-piperidin-1-yl)-ethoxy]-4-methoxy-2-methyl-phenyl}-ethanone] displayed an EC50 of 50 to 150 nM. In turn, `COc1c(Cl)c(C)c(C(C)=O)c(OCCN2CC(F)(F)C2)c1OCCCc1ccccc1` [Example 35, 1-[3-Chloro-6-[2-(3,3-difluoro-azetidin-1-yl)-ethoxy]-4-methoxy-2-methyl-5-(3-phenyl-propoxy)-phenyl]-ethanone] gave a half-maximal effective concentration (EC50) of more than 300 nM.

Compound `COc1c(Cl)c(C)c(C(C)=O)c(OCCN2CCOCC2)c1CCCC(C)c1ccc(F)cc1` (centres unmarked) [Example 31b, 1-(3-Chloro-5-(4-(4-fluorophenyl)pentyl)-4-methoxy-2-methyl-6-(2-morpholinoethoxy)phenyl)ethanone] came in with a concentration giving a half-maximal response (EC50) of 50 to 150 nM. In turn, `COc1c(Cl)c(C)c(C(C)=O)c(OCCN2CCOC[C@@H]2C)c1OCCC(C)c1ccc(F)cc1` (stereo partly drawn) [Example 42, 1-{3-Chloro-5-[3-(4-fluoro-phenyl)-butoxy]-4-methoxy-2-methyl-6-[2-((S)-3-methyl-morpholin-4-yl)-ethoxy]-phenyl}-ethanone] registered an EC50 of 50 to 150 nM. `CC(=O)c1ccc(N)cc1OCCCc1ccccc1` [reference compound] yielded a concentration giving a half-maximal response (EC50) of more than 300 nM.

`COc1cc(O)c(C(C)=O)c(OCCCCOc2ccccc2)c1` [reference compound] returned an EC50 of 150 to 300 nM. On to `COc1c(Cl)c(C)c(C(C)=O)c(OCCNC2CCCC2)c1OCCC(C)c1ccc(F)cc1` (centres unmarked) [Example 9, 1-[3-Chloro-6-(2-cyclopentylamino-ethoxy)-5-[3-(4-fluoro-phenyl)-butoxy]-4-methoxy-2-methyl-phenyl]-ethanone], for which the EC50 lay in the range of 50 to 150 nM. `COc1c(Cl)c(C)c(C(C)=O)c(OCCN2CC(=O)C2)c1OCCCc1ccccc1` [Example 39, 1-[3-Chloro-6-[2-(3-oxo-azetidin-1-yl)-ethoxy]-4-methoxy-2-methyl-5-(3-phenyl-propoxy)-phenyl]-ethanone] showed a concentration giving a half-maximal response (EC50) of more than 300 nM. Compound `COc1c(Cl)c(C)c(C(C)=O)c(OCCNC2CCCC2)c1OCCCc1ccc(F)cc1` [Example 2, 1-(3-Chloro-6-(cyclopentylamino)ethoxy)-5-(3-(4-fluorophenyl)propoxy-4-methoxy-2-methylphenyl)ethanone] came in with a half-maximal effective concentration (EC50) of less than 50 nM.

The compound `COc1c(Cl)c(C)c(C(C)=O)c(OCCN2CC(O)C2)c1OCCCc1ccccc1` [Example 38, 1-[3-Chloro-6-[2-(3-hydroxy-azetidin-1-yl)-ethoxy]-4-methoxy-2-methyl-5-(3-phenyl-propoxy)-phenyl]-ethanone] registered a concentration giving a half-maximal response (EC50) of more than 300 nM. Consider `COc1c(Cl)c(C)c(C(C)=O)c(OCCN2CCC(F)(F)CC2)c1OCCC(C)c1ccc(F)cc1` (centres unmarked) [Example 16, 1-{3-Chloro-6-[2-(4,4-difluoro-piperidin-1-yl)-ethoxy]-5-[3-(4-fluoro-phenyl)-butoxy]-4-methoxy-2-methyl-phenyl}-ethanone], for which the EC50 was in the range of 50 to 150 nM. In the case of `COc1c(Cl)c(C)c(C(C)=O)c(OCCCN2CCOCC2)c1OCCC(C)c1ccc(F)cc1` (centres unmarked) [Example 22b, 1-[3-Chloro-5-[3-(4-fluoro-phenyl)-butoxy]-4-methoxy-2-methyl-6-(3-morpholin-4-yl-propoxy)-phenyl]-ethanone], the concentration giving a half-maximal response (EC50) was less than 50 nM. `COc1c(Cl)c(C)c(C(C)=O)c(OCCc2ccccn2)c1CCCC(C)c1ccc(F)cc1` (centres unmarked) [Example 32, 1-[3-Chloro-5-[4-(4-fluoro-phenyl)-pentyl]-4-methoxy-2-methyl-6-(2-pyridin-2-yl-ethoxy)-phenyl]-ethanone] displayed an EC50 of less than 50 nM. In turn, `CCCC(=O)c1ccc(NC(C)=O)cc1OCCCc1ccccc1` [reference compound] had a concentration for a half-maximal effect (EC50) of more than 300 nM. Consider `CCCc1c(NCC)ccc(C(C)=O)c1OCCCc1ccccc1` [reference compound], for which the half-maximal effective concentration (EC50) is more than 300 nM. In turn, `CC(=O)c1c(O)cccc1OCCCCOc1ccccc1` [reference compound] came in with a 50% effective concentration (EC50) of more than 300 nM.

`COc1c(C)c(C)c(C(C)=O)c(OCCNC2CCCC2)c1OCCC(C)c1ccc(F)cc1` (centres unmarked) [Example 6, 1-{2-(2-Cyclopentylamino-ethoxy)-3-[3-(4-fluoro-phenyl)-butoxy]-4-methoxy-5,6-dimethyl-phenyl}-ethanone] came in with an EC50 of less than 50 nM. Take `COc1ccc(C(C)=O)c(NC(=O)CCc2ccccc2)c1` [reference compound]: the EC50 is more than 300 nM.

In turn, `COc1c(C)c(C)c(C(C)=O)c(OCCc2ccccn2)c1OCCC(C)c1ccc(F)cc1` (centres unmarked) [Example 4f, 1-[3-[3-(4-Fluoro-phenyl)-butoxy]-4-methoxy-5,6-dimethyl-2-(2-pyridin-2-yl-ethoxy)-phenyl]-ethanone] had an EC50 of less than 50 nM.

On to `COc1c(Cl)c(C)c(C(C)=O)c(OCCOc2cnccn2)c1OCCC(C)c1ccc(F)cc1` (centres unmarked) [Example 18b, 1-{3-Chloro-5-[3-(4-fluoro-phenyl)-butoxy]-4-methoxy-2-methyl-6-[2-(pyrazin-2-yloxy)-ethoxy]-phenyl}-ethanone], for which the EC50 was less than 50 nM. Under `COc1c(Cl)c(C)c(C(C)=O)c(OCCN(C)C)c1OCCC(C)c1ccc(F)cc1` (centres unmarked) [Example 40, 1-{3-Chloro-6-(2-dimethylamino-ethoxy)-5-[3-(4-fluoro-phenyl)-butoxy]-4-methoxy-2-methyl-phenyl}-ethanone] stands 50 to 150 nM; under `COc1c(Cl)c(C)c(C(C)=O)c(OCCN2CC[C@@H](F)C2)c1OCCC(C)c1ccc(F)cc1` (some centres unmarked) [Example 12, 1-{3-Chloro-5-[3-(4-fluoro-phenyl)-butoxy]-6-[2-(R-3-fluoro-pyrrolidin-1-yl)-ethoxy]-4-methoxy-2-methyl-phenyl}-ethanone], less than 50 nM; under `COc1c(Cl)c(C)c(C(C)=O)c(OCCN2CC(F)(F)C2)c1OCCC(C)c1ccc(F)cc1` (centres unmarked) [Example 20, 1-{3-Chloro-6-[2-(3,3-difluoro-azetidin-1-yl)-ethoxy]-5-[3-(4-fluoro-phenyl)-butoxy]-4-methoxy-2-methyl-phenyl}-ethanone], 50 to 150 nM. Compound `COc1c(Cl)c(C)c(C(C)=O)c(OCCNC2CCCC2)c1OCCCc1ccccc1` [Example 34c, 1-[3-Chloro-6-(2-cyclopentylamino-ethoxy)-4-methoxy-2-methyl-5-(3-phenyl-propoxy)-phenyl]-ethanone] yielded a 50% effective concentration (EC50) of 50 to 150 nM.

`COc1ccc(C(C)=O)c(NCCCc2ccccc2)c1` [reference compound] yielded a half-maximal effective concentration (EC50) of more than 300 nM. Consider `CC(=O)c1c(OCCCCOc2ccccc2)cccc1OCCN1CCOCC1` [reference compound], for which the EC50 is more than 300 nM. For `CC(=O)Nc1ccc(C(C)=O)c(OCCCc2ccccc2)c1` [reference compound], the concentration for a half-maximal effect (EC50) was more than 300 nM.
